Laboratory results from ChEMBL document CHEMBL1125682, “Novel synthesis and biochemical properties of an [125I]-labeled photoaffinity probe for thromboxane A2/prostaglandin H2 receptors” (J Med Chem, 1991).

Columns and labels:
Thromboxane A2 receptor [1] = target: T1, Thromboxane A2 receptor (Homo sapiens, UniProt P21731); assay: Binding affinity towards Thromboxane A2 receptor/Prostaglandin receptor in human platelet membranes using [125I]- as the radioligand; assay type: cell membranes
T1 sequence (P21731 whole entry): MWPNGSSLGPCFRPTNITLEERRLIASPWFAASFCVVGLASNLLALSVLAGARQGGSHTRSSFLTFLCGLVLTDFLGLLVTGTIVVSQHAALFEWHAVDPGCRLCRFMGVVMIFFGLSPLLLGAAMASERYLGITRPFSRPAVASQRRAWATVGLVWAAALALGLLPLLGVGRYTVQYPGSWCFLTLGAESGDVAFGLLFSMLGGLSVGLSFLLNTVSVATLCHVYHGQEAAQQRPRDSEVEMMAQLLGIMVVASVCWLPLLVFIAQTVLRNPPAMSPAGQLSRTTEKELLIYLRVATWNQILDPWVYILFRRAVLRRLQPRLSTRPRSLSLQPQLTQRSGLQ

Thromboxane A2 receptor [2] = target: T1, Thromboxane A2 receptor; assay: Binding affinity towards Thromboxane A2/ Prostaglandin H2 receptor in human platelet membranes using [125I]- as the radioligand.; assay type: cell membranes

Row | IC50 (Thromboxane A2 receptor [1]) [nM] | IC50 (Thromboxane A2 receptor [2]) [nM] | SMILES
1 | 50 |  | O=C(O)CCC/C=C\C[C@@H]1[C@@H](/C=C/[C@@H](O)COc2ccc(I)cc2)[C@H]2CC[C@@H]1O2
2 |  | 11.2 | O=C(O)C[C@@H]1CCCc2c1n(Cc1ccc(Cl)cc1)c1ccc(F)cc21 (stereo in doubt; L-657925)
3 |  | 1500 | O=C(O)C[C@@H]1CCCc2c1n(Cc1ccc(Cl)cc1)c1ccc(F)cc21 (stereo in doubt; L-657926)
